Measurements taken from patent US4530907A, “Perfusion-cultivation of animal cells and equipment therefor” (priority 1981, dated 1985).

Tested on: neuroblastoma cells
Details: not given
Text: The test system in question is based on cultivation of neuroblastoma cells C1300, 41A3 and the effect on these cells measured as general biological cell changes or biochemical changes, as a function of the content of toxic substances in the substrate. The cell line used is suitable for such measurements since its biology and biochemistry is well documented.
Examples of other parameters which can be used are ATP (adenosine triphosphate) content and LDH (lactate dehydrogenase) activity in the perfusion liquid. These function as indicators of membrane leakage and their concentration can be expected to increase after exposure. Another way of measuring membrane leakage is to study the outflow of an isotope-marked marker (see Example 5). It is also possible to measure the absorption of trypan blue in dead cells with the help of light absorption (see Example 4 and FIG. 4).
Determining LD50 values by means of cell death, measured as absorption of trypan blue
The accumulation of trypan blue (a stain which is taken up in dead cells) can be calculated with the help of light-absorption measurements.

Compound	cell death in neuroblastoma cells, correlation with the LD50 values obtained from animal experiments
c1ccccc1 [benzene]	correlates well

Same assay, conditions: trypan blue absorption by light absorption; statement for all listed substances together

Compound	cell death in neuroblastoma cells, correlation with the LD50 values obtained from animal experiments
[CH3][Hg][Cl] [CH3 HgCl]	correlates well
[Cl][Cd][Cl] [CdCl2]	correlates well
[Cl][Hg][Cl] [HgCl2]	correlates well
[K+].[K+].[O]=[Cr](=[O])([O-])[O][Cr](=[O])(=[O])[O-] [K2 Cr2 O7]	correlates well
CC(C)=O [acetone]	correlates well
C1COCCO1 [dioxane]	correlates well
CCCCO [n-butanol]	correlates well
CCCO [n-propanol]	correlates well
Clc1ccc(C(c2ccc(Cl)cc2)C(Cl)(Cl)Cl)cc1 [pp-DDT]	correlates well
